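Grown in 96-well plates, cells were treated for 48 hours with each compound at five concentrations. Insufficient inhibition: endpoint recorded as highest concentration tested. GI50: concentration for 50% inhibition of growth. TGI denotes the concentration required for complete inhibition of growth.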
System: MDA-MB-468 breast
Assay: growth of human tumour cells (NCI), 48 h

| Structure (SMILES) | GI50 | TGI |
| --- | --- | --- |
| C/C(=C\c1ccn(-c2ccc(N)cc2C(F)(F)F)n1)[C@@H]1C[C@@H]2O[C@]2(C)CCC[C@H](C)[C@H](O)[C@@H](C)C(=O)C(C)(C)[C@@H](O)CC(=O)O1 | 0.289 µM | 0.873 µM |
| CCOC(=O)c1ccc2[nH]c(Cc3[nH]c4ccc(C(=O)OCC)cc4c3C)c(C)c2c1 | 5.59 µM | 28.9 µM |
| O=C1CC(N2C(=O)/C(=C/C(Cl)=C\c3ccc([N+](=O)[O-])cc3)SC2=S)C(=O)N1c1ccc(Cl)cc1 (stereo not given) | 1.33 µM | 3.1 µM |
| O=S(=O)(NCCNc1cc(-c2cn(-c3ccccc3)nc2-c2cccc(O)c2)ccn1)c1ccc(F)cc1 | 1.88 µM | 5.33 µM |
| COc1ccc(C(=O)c2ccc(OC)cc2OC)cc1 | 1.21 µM | 3.89 µM |
| O=C(Nc1cccc(-c2nc3ccccc3[nH]2)c1)c1cccc(NC(=O)c2ccco2)c1 | 1.74 µM | 3.99 µM |
| CCCCCCCCO/N=C\c1c2c(O)c3c(O)c(C)c4c(c3c1O)C(=O)C(C)(O/C=C\C(OC)C(C)C(OC(C)=O)C(C)C(O)C(C)C(O)C(C)/C=C\C=C(\C)C(=O)N2)O4 (stereo not given) | 1.37 µM | 5.11 µM |
| O=C(CSc1nc2sc3c(c2c(=O)n1-c1ccccc1)CCCCC3)N/N=C/c1ccc(F)cc1 | 2.35 µM | 8.02 µM |
| O=C1CN2CCC1C/C2=C\c1ccnc2c(Cl)cccc12 (stereo not given) | 14.8 µM | 57.9 µM |
| O=C1Nc2cc(OC(F)(F)F)ccc2Oc2ccc(-c3ccnc(N4CC[C@H](O)C4)c3)cc21 | 0.0129 µM | 0.368 µM |
| CN1CCN(CCCOc2ccc3ncnc(Nc4ccc(Oc5cccc(C(F)(F)F)c5)c(Cl)c4)c3c2)CC1 | 1.07 µM | 2.87 µM |
| C[C@@H](Oc1cc(-c2cnn(C3CC4(CCNCC4)C3)c2)cnc1N)c1c(F)ccc(Cl)c1Cl | 0.562 µM | 2.12 µM |
| Cc1cc(Nc2ncc(Cl)c(Nc3ccccc3S(=O)(=O)C(C)C)n2)c(OC(C)C)cc1C1CCNCC1 | 1.41 µM | 3.14 µM |
| CN1CCN(Cc2ccc(NC(=O)c3[nH]ncc3Nc3ccnc4ccsc34)cc2)CC1 | 2.12 µM | 5.54 µM |
| CCN(CC)CCCC(C)N/C(c1cccc(OC)c1)=c1\c(=O)[nH]n(-c2c3ccccc3nc3ccccc23)c(=O)\c1=C(/NC(C)CCCN(CC)CC)c1cccc(OC)c1 (stereo not given) | 1.18 µM | 3.09 µM |
| Cc1ccc(-c2nc3nc(-c4ccc(Cl)cc4)nc(N4CCCNCC4)c3o2)cc1 | 1.78 µM | 3.42 µM |
| Cc1cc(S(=O)(=O)/N=C(\N)n2nc(C)c(C)c2C)c(SCc2ccccc2)cc1Cl | 12.1 µM | 92.4 µM |
| Cc1nn(-c2ccccc2)cc1/C=N/Nc1nc(Nc2ccccc2)nc(Nc2ccc(S(N)(=O)=O)cc2)n1 | 1.52 µM | 3.27 µM |
| C=C1C(=O)O[C@H]2[C@H]1CC/C(Cn1cc(Cn3ccc4cc(Cl)ccc43)nn1)=C\CC[C@@]1(C)O[C@@H]21 | 0.908 µM | 2.55 µM |
| O=C(/C=C/C12c3ccccc3C(c3ccccc31)C1C(=O)NC(=O)C12)c1ccco1 (stereo not given) | 2.2 µM | 4.93 µM |
| CNC(=O)c1ccc(Nc2nc(OC3CCCC3)c3c(-c4ccc5nc(C)oc5c4)c[nH]c3n2)c(OC)c1 | 0.424 µM | 27.6 µM |
| CC1=C([Se]CC(OC(=O)[C@@H](CSSC(C)(C)C)NC(=O)C(C)(C)C)C(=O)NCCCCCC(=O)OCc2ccccc2)C(=O)c2ccccc2C1=O (stereo not given in full) | 2.19 µM | 4.35 µM |
| N#C/C(=C\c1ccc(Cl)cc1)n1nnc2cc(F)c(F)cc21 | 1.47 µM | 3.23 µM |

| Structure (SMILES) | GI50 | TGI |
| --- | --- | --- |
| CCN(CC)CCCN1C(=O)c2c(c(C)c3c(oc4cc(O)ccc43)c2C)C1=O | 1.57 µM | 3.13 µM |
| Cc1c(N)nc([C@H](CC(N)=O)NC[C@H](N)C(N)=O)nc1C(=O)N[C@H](C(=O)N[C@H](C)[C@@H](O)[C@H](C)C(=O)N[C@H](C(=O)NCCc1nc(-c2nc(C(=O)NCCC[S+](C)C)cs2)cs1)[C@@H](C)O)C(OC1OC(CO)C(O)C(O)C1OC1OC(CO)C(O)C(OC(N)=O)C1O)c1cnc[nH]1 (stereo not given in full) | 2.48 µM | 15.3 µM |
| Nc1nc(N)c2c(n1)NC(c1ccc(C(F)(F)F)cc1)CC(c1ccc(Nc3nc(NCCO)nc(Nc4ccc(Cl)cc4)n3)cc1)=N2 (stereo not given) | 1.58 µM | 3.21 µM |
| C[C@]12CC[C@H](O)C[C@@H]1CC[C@@H]1[C@@H]2CC[C@@]2(C)[C@H]1CC[C@@H]2[C@](C)(O)CCc1ccc(F)cc1 | 2.44 µM | 28.2 µM |
| Cc1c(N(C(=O)c2cc(-c3cc(Cl)ccc3C(=O)N3Cc4ccccc4C[C@H]3CN3CCOCC3)n(C)c2C)c2ccc(O)cc2)cc(C#N)n1C | 4.7 µM | 25.2 µM |
| O=C(Nc1nc(-c2ccc(Cl)cc2)cs1)c1ccc(O)c(O)c1 | 3.77 µM | 25.5 µM |
| Cc1cc(Nc2nc(N3CCOCC3)nc3ccccc23)n[nH]1 | 4.36 µM | 38.2 µM |
| Cc1cccc(Oc2ccc(Nc3ncnc4ccc(NC(=O)CN5CCN(C)CC5)cc34)cc2Cl)c1 | 0.448 µM | 2.07 µM |
| O=[N+]([O-])c1ccccc1/C=C/C=C1c2ccccc2-c2ccccc21 | 54.6 µM | > 100 µM |
| COc1cc(C(=O)O)ccc1NC(=O)[C@@H]1N[C@@H](CC(C)(C)C)[C@](C#N)(c2ccc(Cl)cc2F)[C@H]1c1cccc(Cl)c1F | 5.12 µM | 16.2 µM |
| CCC[C@H](Nc1nc(-c2ccc(NC(=O)NCC)c(OC)c2)ncc1C)c1cccnc1 | 0.0246 µM | 0.0709 µM |
| CN(C)c1ccc2[nH]c(O)c(C=Nc3ccc(S(N)(=O)=O)cc3)c2c1 | > 25 µM | > 25 µM |
| Fc1ccc(Nc2ccc3cc(OCCCN4CCOCC4)ccc3n2)cc1F | 3.35 µM | 19.3 µM |
| O=c1[nH]cnc2c1nnn2[C@@H]1O[C@H](CO)[C@@H](O)[C@H]1O | 1.54 µM | 24.5 µM |
| CS(=O)(=O)Nc1cc(-c2ccc3ncc(C#N)c(NCc4ccccc4)c3c2)cnc1Cl | 0.0819 µM | 0.896 µM |
| COc1cc(N)ccc1Nc1c2ccccc2nc2ccccc12 | 11.8 µM | 28.8 µM |
| C[C@]12CC[C@H]3[C@@H](CC=C4C[C@@H](O)CC[C@@]43C)[C@@H]1C/C(=C\c1cccc(OCCCn3ccnc3)c1)[C@@H]2O | 7.43 µM | 31.3 µM |
| C=C1C(=O)O[C@H]2[C@H]1CC/C(COC(=O)N[C@@H](Cc1c[nH]c3ccccc13)C(=O)OC)=C\CC[C@@]1(C)O[C@@H]21 | 1.23 µM | 3.05 µM |
| Nc1c(C(=O)Nc2cccc3ccccc23)sc2nc3c(cc12)CCCCC3 | 0.231 µM | > 50 µM |
| O=C(/C=C/c1ccc2c(c1)OCO2)c1ccccc1 | 13.9 µM | 28 µM |
| CC(=O)O[C@H]1C(=O)[C@@]2(C)[C@H]([C@H](OC(=O)c3ccccc3)[C@]3(O)C[C@H](OC(=O)[C@H](OC(=O)CCC(=O)OC4CCC(S/N=C(N)/N=C(\N)N(C)C)CC4)[C@@H](NC(=O)c4ccccc4)c4ccccc4)C(C)=C1C3(C)C)[C@]1(OC(C)=O)CO[C@@H]1C[C@@H]2O (stereo not given in full) | 0.00732 µM | 0.0433 µM |
| C=C1C(=O)O[C@H]2[C@H]1CC/C(COC(=O)NCCc1c[nH]c3ccccc13)=C\CC[C@@]1(C)O[C@@H]21 | 1.38 µM | 4.32 µM |
